Source: US6375944B1, “Methods and compositions for enhancing the immunostimulatory effect of interleukin-12” (The Wistar Institute of Anatomy and Biology, priority 1998, dated 2002)
Several values for one entry are separate records, joined by “and”; a condition that tells them apart may be missing. Equal values may be shown once.

Assays:
splenocytes = test: Mitogen and alloantigen stimulation of splenocytes (3H-thymidine incorporation), whole or adherent/nonadherent cocultures; format: cell-based, mice; parameters: Effect on mitogenesis / inhibition of mitogenic responses: dose or concentration left out as unconfirmed
Description: The mitogen and alloantigen stimulation of splenocytes assay was performed as follows: In vitro mitogenic stimulation of splenocytes with […] Con A or 100 U/ml rmIL-12 was performed as described [Kurzawa, cited above]. Proliferative responses to allogeneic antigens (mixed lymphocyte reaction, MLR) was measured when splenocytes from the mice were stimulated with 10^5 mitomycin treated A/J splenocytes. Splenocyte fractionation was performed by allowing 10^5 splenocytes to adhere for 90 minutes in 96 well plates, after which the nonadherent cells were removed and cocultured with adherent cells from different wells for assay. When added, antibodies (XMG6 for IFNγ, XT22 for TNFα, AE5 for IL-10 and C17.8 for IL-12 ) were used at […] final concentration. After 72 hours exposure to mitogen, cultures were pulsed with 1 μCi^3H-thymidine for 16 hours, cells were harvested and ^3H incorporation was measured by scintillation counting. Supernatants from cultures assayed for IFNγ by radioimmunoassay (RIA) (using antibodies AN18 and XMG6 [Wysocka, M. et al. 1995 Eur. J. Immunol. 25:672] were harvested 24 or 72 hours after stimulation.
A. Splenocytes from rmIL-12- and PBS-treated C57BL/6 mice were fractioned by adherence to 96 well plastic plates for 90 minutes. The cells were reconstituted in various combinations of adherent and nonadherent cells by overlaying nonadherent cells on the adherent cells. These cocultures were then stimulated with either 2.5 μg/ml Con A, 100 U/ml IL-12, or 10^5 mitomycin C treated A/J (H-2A) splenocytes, as described in the mitogen/alloantigen assay of Example 1.
B. Cocultures were established from splenic adherent and nonadherent cells of PBS-treated mice or from the adherent cells of rmIL-12-treated mice and nonadherent cells of PBS-treated mice. Antibodies XMG6 (to IFNγ), XT22 (to TNFα), AE5 (to IL-10) and C17.8 (to IL-12 ) were added to a final concentration of […] in cocultures containing adherent cells from spleen of rmIL-12-treated mice, also according to the assay described in Example 1.
(§1) Cocultures were established from splenic adherent and nonadherent cells of PBS-treated mice or from the adherent cells of rmIL-12-treated mice and nonadherent cells of PBS-treated mice. Antibodies XMG6 (to IFNγ), XT22 (to TNFα), AE5 (to IL-10) and C17.8 (to IL-12) were added to a final concentration of […] in cocultures containing adherent cells from spleen of rmIL-12-treated mice. An inhibitor of inducible nitric oxide synthase (iNOS), L-NMMA (Sigma), was added to cocultures of adherent cells from rmIL-12 treated mice and nonadherent cells from control mice at a final concentration of […]. Alternatively, D-NMMA (Sigma), a noninhibitory isoform of L-NMMA, was added to other cocultures as a control.

SCK cells [1] = test: SCK.GM cell vaccination followed by SCK tumor cell challenge; format: in vivo, A/J mice; settings: for Effect on SCK.GM-induced protection: mice not treated with rmIL-12, data not shown
Excerpt: A. Female A/J mice were vaccinated with 10^6 irradiated SCK.GM cells suspended in PBS at 10^7 trypan blue-excluding cells/ml. Cells were irradiated with 6000 rads from a ^137Cs source, and mice were vaccinated with 10^6 cells s.c. (day 0). […] Vaccinated and naive A/J mice were challenged fourteen days after vaccination with 2.5×10^4 trypan blue-excluding SCK cells in the opposite flank to assay for the presence of tumor immunity. Tumorigenesis was scored daily.

SCK cells [2] = test: Tumor cell rechallenge in mice with established SCK immunity; format: in vivo, A/J mice; settings: for Prevention of rmIL-12 impairment of immune rejection: given with rmIL-12 therapy, established SCK immunity; for mice that developed tumors: rmIL-12 treated mice with established SCK immunity, data not shown
Excerpt: Thus, L-NAME prevents rmIL-12 suppression of established antitumor immune responses.

SCK tumors = test: Antitumor activity of rmIL-12 against SCK tumors (tumorigenesis scored daily); format: in vivo, A/J mice
Description: Female A/J mice were injected with 2.5×10^4 SCK cells and either PBS, rmIL-12, rmIL-12+L-NAME or rmIL-12 and D-NAME on days 0-4 and 7-11. Tumorigenesis was scored daily, as described above.

SCK cells [3] = test: Irradiated wild-type SCK cell vaccination followed by SCK tumor cell challenge; format: in vivo, A/J mice; settings: for mice that developed tumors: given with irradiated SCK cells and rmIL-12, challenged on day 14
Excerpt: Female A/J mice (8 mice per group) were vaccinated with 10^6 irradiated SCK cells and received either PBS, rmIL-12, rmIL-12+L-NAME or rmIL-12 and D-NAME on days 0-4 and 7-11. Mice were challenged fourteen days after vaccination with 2.5×10^4 SCK cells in the opposite flank. Tumorigenesis was scored daily, as described above.

NO production = NO production measured as nitrite in stimulated cell supernatants by the Greiss assay; format: cell-based; parameters: dose or concentration left out as unconfirmed; settings: cocultures of adherent cells from rmIL-12 treated mice and nonadherent control cells; compared to D-NMMA; two independent measurements
Description: as §1
NO production was measured as nitrite concentration in stimulated cell supernatants by the Greiss assay [Green, L. C. et al, Anal. Biochem 126:131 (1982)]. Supernatant (100 μl) was added to 96 well plates; 100 μl of a 1:1 mixture of 1% sulfanilamide dihydrochloride in 2.5% H3PO4 and 0.1% naphthylethylenediamine dihydrochloride in 2.5% H3PO4 was then added to samples. Plates were incubated at room temperature for 10 minutes and A540 was determined using a microplate reader with reference to sodium nitrite standard curves. S-nitroso-N-acetyl-penillamine (SNAP, Sigma), an NO donor, was used as a acellular source of NO and was added to splenocytes from HKB-vaccinated C57BL/6 mice.

[4] = SCK-vaccinated mice, at 28 days, rmIL-12 alone, or L-NAME/D-NAME given with rmIL-12

| Compound | Effect on SCK.GM-induced protection (SCK cells [1]) | Prevention of rmIL-12 impairment of immune rejection (SCK cells [2]) | mice that developed tumors (SCK cells [2]) [%] | level of protection (SCK cells [3]; [4]) [%] | mice that developed tumors (SCK cells [3]) [%] | also measured |
| --- | --- | --- | --- | --- | --- | --- |
| S-nitroso-N-acetyl-penillamine [SNAP, reference compound] |  |  |  |  |  | inhibition of mitogenic responses (splenocytes; splenocytes from HKB-vaccinated C57BL/6 mice, cultures with NO levels as low as): 83-98% |
| COC(=O)[C@@H](N)CCCNC(=N)N[N+](=O)[O-] [L-NAME, N^ω-nitro-L-arginine methyl ester] | had no effect | prevented this impairment of immune rejection | 25 | 50 | 38 | Prevention of rmIL-12 impairment of SCK.GM vaccine protection (SCK cells [1]; given with rmIL-12 days 0-4 and 7-11, challenge 14 days after vaccination): prevented this impairment; median days to tumor appearance (SCK tumors; 2.5×10^4 SCK cells, treatment days 0-4 and 7-11, L-NAME given with rmIL-12, 9 days without rmIL-12): 17 days; delay of tumor appearance vs. mice given rmIL-12 alone or with D-NAME (SCK tumors; L-NAME given with rmIL-12): 3 days; Effect on SCK tumorigenesis (SCK tumors; given without rmIL-12, data not shown): had no effect on SCK tumorigenesis; delay of tumor appearance vs. untreated mice (SCK tumors; treatment started on day of SCK cell injection, L-NAME given with rmIL-12): 8 days; level of protection (SCK cells [3]; SCK-vaccinated, given with rmIL-12, at 14 days): 62% |
| COC(=O)[C@H](N)CCCNC(=N)N[N+](=O)[O-] [D-NAME, N^ω-nitro-D-arginine methyl ester] | had no effect | not | 75 | 50 | 75 | mice that developed tumors (SCK cells [1]; SCK.GM vaccinated, given with rmIL-12, challenge 14 days after vaccination): 75% |
| CNC(=N)NCCC[C@H](N)C(=O)O [L-NMMA, N^G-monomethyl-L-arginine] |  |  |  |  |  | Effect on mitogenesis (splenocytes; cocultures of adherent cells from rmIL-12 treated mice and nonadherent control cells, compared to D-NMMA): restored mitogenesis; reduction of NO levels in the culture supernatant (NO production): 58% and 94% |
